# Source: PubChem BioAssay AID2305 (GlaxoSmithKline (GSK), 2010)
# Where a SMILES comes first, the peptide text is derived from it. The star is where a group is joined. Boc = CC(C)(C)OC(=O)*
# System: P. falciparum 3D7 growth, pLDH absorbance
# Experiment: blood-stage malaria parasite growth potency – strain 3D7, dose response (AID 2305)
row,SMILES,IC50
1,Cc1cc(N2CCCC2)nc(Nc2ccc(NC(=O)c3ccccc3)cc2)n1,980 nM
2,Nc1nc(N)c2c(Cc3ccc(Br)cc3)cccc2n1,770 nM
3,CCN(CC)CCN(Cc1ccc(-c2ccc(C(F)(F)F)cc2)cc1)C(=O)Cn1c(CCc2cccc(F)c2F)nc(=O)c2sccc21,900 nM
4,COC(=O)CC[C@H](NC(=O)[C@H](C)NC(=O)OC(C)(C)C)C(=O)OC (Boc-Ala-Glu(OMe)-OMe),820 nM
5,COc1ccc(CCNCCCCNCCc2ccc(OC)c3ccccc23)c2ccccc12,450 nM
6,O=C(/C=C/c1ccc(Cl)c(Cl)c1)NCCCCCN1CCCN(C(=O)Nc2ccc(Cl)c(C(F)(F)F)c2)CC1,730 nM
7,O=C(/C=C/c1ccc(Cl)c(Cl)c1)N1CCC(CN2CC[C@H](c3c[nH]c4ccccc34)[C@@H](O)C2)CC1,810 nM
8,NC1CCCN(Cc2ccc(-c3cccc(-c4nc5ccccc5[nH]4)c3)cc2)C1 (stereo unspecified),720 nM
9,Cc1ccc2nc3sc(C(=O)NCCCN4CCC(N5CCCCC5)CC4)cc3cc2c1,670 nM
10,O=C(NCCCCN1CCC(c2ccc3c(c2O)CCCC3)CC1)c1ccc(-c2ccc(Cl)cc2)cc1,750 nM
11,O=C(/C=C/c1ccc(Cl)c(Cl)c1)NCCCCCN1CCC(NC(=O)Nc2ccc(C(F)(F)F)cc2)CC1,750 nM
12,COc1ccc(Br)cc1/C=C/C(=O)Nc1ccc(C2CCN(C)CC2)cc1,500 nM
13,COc1cc(CCCON2C(N)=NC(N)=NC2(C)C)cc(OC)c1OC,40 nM
14,O=C(NC1CCCCC1)C1CCCN(C(=O)c2ccc(O)c(-c3ccc(Cl)c(Cl)c3)c2)C1 (stereo unspecified),900 nM
15,CC(C)c1ccc(S(=O)(=O)N(c2ccc3c(c2)OCO3)C2CCN(Cc3ccccc3)C2)cc1 (stereo unspecified),350 nM
16,COc1cc2c(cc1S(=O)(=O)c1ccc(NC(=O)c3cccc(C(F)(F)F)c3)cc1)CCN(C)CC2,1380 nM
17,CCCCCCCCNCc1c(O)ccc2ccccc12,740 nM
18,COc1ccc(-c2cccc(NC(=O)c3cccc(F)c3)c2)cc1CN1CCCN(C)CC1,600 nM
19,C=CCc1c(C(=O)NCC23CC4CC(CC(C4)C2)C3)[nH]c2ccccc2c1=O,1030 nM
20,COc1ccc(C2C(C(=O)Nc3ccccc3)=C(C)Nc3c(C(=O)Nc4ccccc4)cnn32)cc1 (stereo unspecified),1310 nM
21,COc1ccc(CNc2ccc3nc(N)nc(N)c3c2)cc1,170 nM
22,Oc1ccccc1CNCC(O)c1cc(C(F)(F)F)cc(C(F)(F)F)c1 (stereo unspecified),180 nM
23,COc1ccc(N2CCN(CCCCNC(=O)c3ccc(NC(=O)c4cc(C(F)(F)F)cc(C(F)(F)F)c4)cc3)CC2)cc1OC,220 nM
24,Cc1ccc(S(=O)(=O)NC2=NC(C)(C)N(OCc3ccc(Cl)c(Cl)c3)C(N)=N2)cc1,1140 nM

row,SMILES,IC50
1,c1ccc(C(c2ccccc2)N2CCC(NCc3ccc(OCCCN4CCCCC4)cc3)CC2)cc1,560 nM
2,CN1CCN(c2ncnc3ccc(NC(=O)Nc4ccc(Cl)c(Cl)c4)cc23)CC1,260 nM
3,CCNc1cc(C(=O)N[C@@H](Cc2ccccc2)[C@H](O)CN[C@@H](C)c2cccc(OC)c2)cc(N2CCCC2=O)c1,770 nM
4,Cc1ccc(S(=O)Cc2ccc(Cl)cc2)cc1 (stereo unspecified),200 nM
5,CO/C(=C\C=C\c1cc2cc(Cl)c(Cl)cc2[nH]1)C(=O)NCCCN1CCN(c2cccc(OCC(=O)Nc3ccccc3)c2)CC1,500 nM
6,O=C(/C=C/c1ccc(Cl)c(Cl)c1)NC1[C@@H]2CC[C@H]1CC(CN1CCC(c3c[nH]c4ccccc34)CC1)C2 (stereo partly specified),200 nM
7,Clc1ncccc1-c1nc(NCCC(c2ccccc2)c2ccccc2)no1,1000 nM
8,O=C(C=Cc1ccc(Cl)c(Cl)c1)NCCCCCN1CCC(CCNC(=O)c2ccc3c(c2)OCO3)CC1,690 nM
9,CCNC(=O)Nc1cccc(-c2ccc(-c3nc4c(C)cccc4[nH]3)s2)c1,770 nM
10,COc1ccc(C(=O)CCC(=O)N(Cc2ccc(-c3ccc(CNCCc4ccc(S(C)(=O)=O)cc4)cn3)cc2)C2C[C@@H]3CC[C@H]2C3)cc1F (stereo partly specified),930 nM
11,CC(C)(C)c1ccc(CNC(=O)/C=C/c2ccc(CNC3CCNCC3)cc2)cc1,1090 nM
12,Cc1ccccc1C1CCN(C2CCC(NC(=O)C3=Cc4cc(Cl)ccc4OC3)CC2)CC1 (stereo unspecified),890 nM
13,CCc1cn2c3c(cc(C(=O)N[C@@H](Cc4ccccc4)[C@H](O)CN[C@@H](C)CC)cc13)N(C)S(=O)(=O)CC2,70 nM
14,CCOc1cc2ncnc(Nc3ccc(OCc4ccccc4OC)c(OC)c3)c2cc1OCC,880 nM
15,COc1ccc2ncc(OC)c(CCN3CC[C@@H](NCc4ccc5c(n4)NC(=O)CS5)[C@H](O)C3)c2n1,830 nM
16,COc1ccc(CNCc2cccc(-c3cccc(-c4nc5ccc(F)cc5[nH]4)c3)c2)cc1,300 nM
17,COc1ccc(-c2onc(C(F)(F)F)c2-c2cc3ccccc3o2)c(O)c1,860 nM
18,Cc1ccc(C)c(Cn2c(N3CCC(C(=O)NCc4cccs4)CC3)nc3ccccc32)c1,940 nM
19,Cc1ccc(-c2ccc3c(c2)C=C(C(=O)NCC2CCN(CC4CCN(C(=O)/C=C/c5ccc(Cl)c(Cl)c5)CC4)CC2)CCC3)cc1,780 nM
20,Cc1ccc(-c2[nH]n3c(=O)c4c(nc3c2C)CCCC4)cc1,220 nM
21,Oc1cccc(-c2cnc3ccc(NCc4ccc(F)cc4)nn23)c1,1080 nM
22,O=C(Nc1cc(=O)[nH]c2nc(-c3ccccc3)nn12)C1CCCCC1,420 nM
23,CN1CCC(C(=O)Nc2ccc(-c3cccc(-c4nc5ccc(F)cc5[nH]4)c3)cc2)CC1,790 nM
24,CC1CCCN(C(=O)C(C)Nc2cc(Cl)ccc2N2CCOCC2)C1 (stereo unspecified),320 nM

row,SMILES,IC50
1,CC1CC(C)CN(S(=O)(=O)c2cc(C(=O)Nc3cccc([N+](=O)[O-])c3)ccc2Br)C1 (stereo unspecified),900 nM
2,Oc1ccc(CN2Cc3ccccc3OC3(CCN(Cc4c[nH]c5cnccc45)CC3)C2)cc1,1170 nM
3,COc1cc2nc(N3CCN(C(=O)c4cccc(I)c4)CC3)nc(N)c2cc1OC,1320 nM
4,FC(F)(F)c1ccc2nccc(NN=Cc3cccc(Cl)c3)c2c1,820 nM
5,FC(F)(F)COc1ccc(CCNCCCCNCCc2ccc(OCC(F)(F)F)c3ccccc23)c2ccccc12,650 nM
6,Cc1ccc(C)c(Cn2ccc3nc(Cl)nc(Cl)c32)c1,910 nM
7,CCCCSc1ccc2nc(-c3c[nH]c4ccc(C#N)cc34)cn2c1,950 nM
8,NCc1cccc(-c2cccc(CNC3CCN(Cc4ccccc4)CC3)c2)c1,720 nM
9,COc1cc(OC)cc(-c2nc3c(C#N)c(OCCN(C)C)ccc3[nH]2)c1,650 nM
10,CCc1cn2c3c(cc(C(=O)N[C@@H](Cc4ccccc4)[C@H](O)CNC4CC4)cc13)N(CC)S(=O)(=O)CC2,110 nM
11,Cc1cc(NN=Cc2ccccc2[N+](=O)[O-])c2cc(C(F)(F)F)ccc2n1,750 nM
12,CC(=O)Oc1c(Cl)c(C)nc(C)c1-c1ccc(Oc2ccc(Cl)cc2)cc1,30 nM
13,CC(C)(C)c1ccc(CN2CCC(NC(=O)c3ccc(-c4ccccc4F)s3)CC2)cc1,1200 nM
14,COc1cc(Cc2cnc(N)nc2N)c2c(c1OC)OC(C)C=C2 (stereo unspecified),1250 nM
15,O=S(=O)(Nc1cccc(CCN2CCCCC2CCN2CCCC2)c1)c1ccc(-c2ccccc2)cc1 (stereo unspecified),1090 nM
16,COc1cc(Cc2cnc(N)nc2N)cc(OC)c1OCCNC(=O)[C@@H](N)CCC(=O)O,840 nM
17,O=S(=O)(NCCN1CCCC1)c1cccc(-c2cccc(CNCc3ccc(F)cc3)c2)c1,850 nM
18,CC1CCCCC1N(C)C1CCN(CCCNC(=O)C=Cc2ccc(Cl)cc2Cl)CC1 (stereo unspecified),650 nM
19,Cc1nc(C)c(CC(=O)Nc2cccc(-c3cccc(-c4nc5c(C)cccc5[nH]4)c3)c2)s1,750 nM
20,COc1ccc2nc(-c3ccccc3)cc(NN=Cc3ccncc3)c2c1,810 nM
21,Cc1c(S(=O)(=O)Nc2ccc3nccc(N4CCN[C@H](C)C4)c3c2)sc2ccc(Cl)cc12,840 nM
22,COc1ccc(S(=O)(=O)N(c2cc(Br)cc3c2OCC3)S(=O)(=O)c2ccc(OC)c(N3CCN(C)CC3)c2)cc1N1CCN(C)CC1,1170 nM
23,CCCCCOc1ccc(C=NNc2nc(-c3ccccc3)cc(=O)[nH]2)cc1,890 nM
24,C[C@@H]1CN(c2cnn(Cc3cccc(NC(=O)Nc4ccc(-c5ccccc5)cc4)c3)c(=O)c2Cl)C[C@H](C)N1,340 nM

row,SMILES,IC50
1,Cc1[nH]c(C)c(-c2ccc(-c3ccc(F)cc3)nc2)c(=O)c1Br,250 nM
2,O=C(Nc1cccc(C(F)(F)F)c1)c1cccc(S(=O)(=O)NC2CCN(CC3CCCCC3)C2)c1 (stereo unspecified),590 nM
3,CCN(Cc1ccccc1)CC(O)c1ccc(Cl)c(Cl)c1 (stereo unspecified),180 nM
4,CC1(CCc2ccccc2)N=C(Nc2ccc(Cl)cc2)N=C(N)C1c1ccc(Cl)c(Cl)c1 (stereo unspecified),220 nM
5,CCc1c(CCNCCCCCNCCc2ccc(OC)c(OC)c2CC)ccc(OC)c1OC,1110 nM
6,CCC1CN2CCc3cc(OC)c(OC)cc3C2CC1CC1NCCc2cc(OC)c(OC)cc21 (stereo unspecified),140 nM
7,CC(=O)Nc1ccc(C(=O)Nc2cccc(-c3cccc(-c4nc5ccccc5[nH]4)c3)c2)cn1,200 nM
8,Cc1[nH]c(C)c(-c2ccc(OCCCc3ccccn3)cc2)c(=O)c1Br,210 nM
9,COc1cccc(CNC(=O)c2ccnc(-c3ccc(CNCCOc4ccccc4)cc3)c2)c1,1200 nM
10,NC(=O)c1cnc2ccc(-c3cncs3)cc2c1Nc1ccc(F)c(Cl)c1,180 nM
11,CN(C)CCNc1cc(-c2ccc3ccccc3c2)nc2ccccc12,350 nM
12,CN(CCN1CCCC1)c1nc2ccc(-n3cnc4cc(-c5ccc(Cl)cc5)sc4c3=O)cc2[nH]1,820 nM
13,CC(=O)N[C@H](C(=O)Nc1cccc(-c2ccc(-c3nc4c(C)cccc4[nH]3)s2)c1)C(C)C,760 nM
14,c1ccc(-c2nc(Nc3ccncc3)sc2-c2ccccc2)cc1,810 nM
15,COc1c(C=NNc2nc(Nc3ccccc3)nc(Nc3ccccc3)n2)ccc(Br)c1O,720 nM
16,CCOc1cc2ncnc(Nc3ccc(OCc4ccccc4F)c(Cl)c3)c2cc1OCC,600 nM
17,Cc1nnsc1C(=O)Nc1ccc(-c2cccc(-c3nc4ccc(F)cc4[nH]3)c2)cc1,770 nM
18,O=C(/C=C/c1ccc(Cl)c(Cl)c1)NCCCCCN1CCC(NC(=O)Nc2ccc(OC(F)F)cc2)CC1,750 nM
19,CN(C)C(=O)CN1CCN(c2ncnc(N3CCc4c([nH]c5ccccc45)[C@@H]3c3ccc4c(c3)CCO4)n2)CC1,870 nM
20,CN(C)c1cc(NN=Cc2cc(Cl)ccc2O)nc(N(C)C)n1,700 nM
21,O=C(Nc1cccc(-c2cccc(-c3nc4ccc(F)cc4[nH]3)c2)c1)c1cnc[nH]1,460 nM
22,CCNC(C)(C)CN(Cc1ccc(-c2ccc(C(F)(F)F)cc2)cc1)C(=O)Cn1c(SCc2ccc(F)cc2)nc(=O)c2c1CCC2,990 nM
23,N=c1n(Cc2ccccc2)c2ccccc2n1CC(O)c1ccc(Cl)c(Cl)c1 (stereo unspecified),830 nM
24,O=C(Cc1cccnc1)Nc1cccc(-c2cccc(-c3nc4ccc(C(F)(F)F)cc4[nH]3)c2)c1,680 nM
